Reference: PMC8904451, “Novel chalcone-derived pyrazoles as potential therapeutic agents for the treatment of non-small cell lung cancer” (Scientific Reports, 2022)

How the values were obtained:
H226 cells = assay: MTT cell viability assay, H226; type: cell-based, human
Method: (§1) All the synthesized chalcone-derived pyrazoles were evaluated for their antiproliferative activity against three human non-small cell lung cancer cell lines: A-549, H226, and H460, and a nonmalignant human embryonic kidney cell line HEK293. Cisplatin and 5-fluorouracil (5-FU) were used as a reference. Cells were exposed to a range of PCH concentrations (0.5–100 µM) for 72 h and analyzed by 3-(4,5-dimethylthiazol-2-yl)-2,5-diphenyl-2H-tetrazolium bromide (MTT) assay. The results of the studies are expressed as the IC50 concentration that inhibits 50% growth of cells. […] Following treatment with PCH-1, the viability of all the tested cancer cell lines decreased in a concentration-dependent manner.
(§2) The cell viability assay was performed for A-549, H226, H460, and HEK293 cells after treatment with the test compounds by using the 3-(4,5-dimethylthiazol-2-yl)-2,5-diphenyltetrazolium bromide (MTT, Sigma-Aldrich) assay. Briefly, cells were seeded onto 96-well culture plates for attachment. After 24 h, triplicate wells were treated with DMSO (1%) and the agents. After 72 h of incubation at 37 °C in 5% CO2, the MTT solution (0.4 mg/ml) was added to each well. After 2–4 h of incubation, the medium was removed, and the formazan crystals were dissolved in 100 μl of DMSO. The absorption was measured at 450 nm with an ASYS UVM340 microplate reader (Biochrom Ltd.). The 50% inhibitory concentration (IC50) was defined as the concentration that reduced the absorbance of the DMSO-treated wells by 50% of the vehicle. The IC50 values were generated from GraphPad Prism 9 software by plotting the survival curve as a function of dose from 3 independent experiments.

HEK293 cells = assay: MTT cell viability assay, HEK293; type: cell-based, human; conditions: Homo sapiens, HEK293, 72 h, nonmalignant cells, read-out: IC50 ± SD, growth inhibition, HEK293
Method: as §1, §2

tubulin = assay: HTS-tubulin polymerization assay; type: biochemical; conditions: 120-min kinetic reaction, absorbance 340 nm, vs vehicle
Method: To further evaluate whether the tubulin–microtubule system was the target site of PCH-1, in vitro microtubule polymerization assays were performed using the microtubule protein with Paclitaxel and Vincristine as a reference. Paclitaxel and Vincristine are antimitotic drugs that have been commonly used in conventional chemotherapy for decades. In 1979, it was shown that Paclitaxel accelerates the initiation of tubulin fiber polymerization and stabilizes the formed tubulin fibers in vitro, even in the absence of GTP or MAP in the solution[30]. Vincristine, on the other hand, binds to tubulin and inhibits its polymerization.
The assay was performed according to the manufacturer’s instructions. Briefly, compounds were diluted in DMSO to a concentration of 2 mM and then in GTB buffer to a concentration of 50 µM. In the wells of a 96-well plate (UV transparent, half surface wells) previously heated to 37 °C, 10 µl of dilutions of the test compounds were placed in duplicate. The plate was incubated for 2 min at 37 °C, and 100 µl of freshly prepared tubulin solution (4 mg/ml) in GTB-GTP buffer was then added. The plate was immediately placed in a Tecan SPARK 10 M plate reader, and the reaction kinetics were measured with the following settings: absorbance reading: 340 nm, 37 °C, interval: 45 s, number of cycles: 160.

[1] = system: A-549, H226, and H460 cells; assay: Annexin V/PI apoptosis assay by flow cytometry; type: cell-based, human; conditions: 48 h, IC90, depending on the cell line; vehicle approximately 5%
Method: To examine whether the effect of PCH-1 on reducing the viability of lung cancer cells was the result of inducing apoptotic cell death, A-549, H226, and H460 cells were treated with the compound for 6, 24, and 48 h, and analyzed by Annexin V/propidium iodide (PI) double staining using flow cytometry (Fig. S1 in supplementary information). […] At 24 h of treatment with the compound, a slight increase in both early (Annexin V(+)/PI(−)) and late (Annexin V(+)/PI(+)) apoptotic fractions was observed. […] PI can enter only those cells with damaged plasma membrane, which enables to differentiate early apoptotic cells from late apoptotic and necrotic cells. Overall, biochemical changes involved in apoptotic cell death were prevailing, whereas necrotic changes were not observed. Furthermore, typical phenotypic features of cells undergoing apoptosis were visualized by fluorescent microscopy in Supplementary Fig. S2 and described in Supplementary Information.
Cells were seeded onto tissue culture plates and allowed to attach for 24 h. Next, the cells were treated with PCH-1 or Etoposide at IC90 concentration for 6, 24, and 48 h. […]

[2] = system: caspase-3/7 in A-549 cells; assay: Caspase-3/7 activation by flow cytometry, A-549; type: cell-based, human; conditions: IC90
Method: (§3) To explain the type of cell death that cancer cells undergo after treatment with PCH-1, the ability of the compound to activate caspases 3–7 was determined by flow cytometry. […] The most pronounced activation of caspase 3 occurred equally in A-549 and H226 cell lines after 48 h of treatment and was sevenfold greater than that in the vehicle.
(§4) Cells were seeded onto tissue culture plates and allowed to attach for 24 h. Next, the cells were treated with PCH-1 or Etoposide at IC90 concentration for 6, 24, and 48 h. After incubation, the cells were harvested by trypsinization, rinsed twice with PBS, and stained with Annexin V Alexa Fluor™ 488 conjugate (Thermo Fisher, #A13201) for apoptosis assay and with CellEvent™ Caspase-3/7 Green Flow Cytometry Assay Kit (Thermo Fisher, #C10427) for caspase-3/7 activation according to the manufacturer’s protocols. The analysis was performed with Guava EasyCyte 8 cell sorter (Merck Millipore) and FlowJo software v10. Each experiment was repeated independently three times.

[3] = system: caspase-3/7 in H226 cells; assay: Caspase-3/7 activation by flow cytometry, H226; type: cell-based, human; conditions: IC90
Method: as §3, §4

[4] = system: caspase-3/7 in H460 cells; assay: Caspase-3/7 activation by flow cytometry, H460; type: cell-based, human; conditions: IC90
Method: as §3, §4

SMILES: COc1ccc(C2CC(c3cc4c(cc3OC)OCO4)=NN2C(C)=O)cc1 (stereo not shown) [PCH-1, 1-[3-(6-methoxy-2H-1,3-benzodioxol-5-yl)-5-(4-methoxyphenyl)-4,5-dihydro-1H-pyrazol-1-yl]ethan-1-one]
- superior activity to the reference compound Cisplatin, H226 (H226 cells; 72 h IC50 ratio): ~3.7 fold
- IC50 (H226 cells; Homo sapiens, NCI-H226, 72 h, MTT, read-out: IC50 ± SD, growth inhibition, H226): 4.69 ± 0.43 µM
- IC50 (HEK293 cells): 20.9 ± 2.34 µM
- effect on tubulin polymerization kinetics (tubulin): remarkably reduced the total mass of tubulin polymer
- late apoptotic phase (Annexin V(+)/PI(+)) cells [1]: 30–60%
- caspase-3/7 activation, increase compared to control, A-549 ([2]; 6 h): 2.6 fold
- activation of caspase 3 vs vehicle, A-549 ([2]; 48 h): sevenfold
- cells with activated caspase 3/7 vs control, A-549 ([2]; later exposure): greater than 5.8 times
- caspase-3/7 activation, increase compared to control, H226 ([3]; 6 h): 2.9 fold
- activation of caspase 3 vs vehicle, H226 ([3]; 48 h): sevenfold
- cells with activated caspase 3/7 vs control, H226 ([3]; later exposure): > 4.7 times
- caspase-3/7 activation, increase compared to control, H460 ([4]; 6 h): 3.15 fold
- cells with activated caspase 3/7 vs control, H460 ([4]; later exposure): remaining approximately constant
